How the values were obtained:
Type in all cases: in vivo
Sprague-Dawley rats = experiment: Naloxone precipitated withdrawal syndrome of heroin
Procedure: The abrupt cessation of chronic opiate use results in a well characterized withdrawal syndrome with symptoms that include pain sensitivity, dysphoria, irritability, restlessness, insomnia, diarrhea and hyperventilation. In the present model, the naloxone-precipitated withdrawal syndrome is measured in rodents. Animals are chronically treated with a drug, e.g. morphine or heroin. Opiate withdrawal syndrome is elicited by an acute injection of the opiate antagonist Naloxone.
The effect of mazindol on heroin withdrawal syndrome elicited by naloxone was examined in Sprague-Dawley rats using a method similar to the one used by Jiang et al. (10),
Animals were subdivided into two groups. One group received heroin two i.p. injections/day for 12 consecutive days and a single injection on the 13th day (total: 25 injections) as exposed in Table 3 group received saline instead of heroin following the same protocol.
On day 13, animals received treatments and were tested according to the following time schedule: • T=0: i.p. injection of heroin (15 mg/kg) or vehicle. • T=2.5 h: animals individually placed in a transparent Plexiglas observation boxes (40×40×40 cm). • T=3.5 h: i.p. injection of treatment (see below). • T=4 h: i.p. injection of naloxone (5 mg/kg), start of test: observation of withdrawal symptoms as indicated in Table 4. • T=5 h: end of test, animals placed back into their home cages.
Animals received the following treatments at T 3.5 h (i.e. 30 min before injection of naloxone and observation of symptoms): • 1) Animals treated with saline during the intoxication period (days 1-12) and at T0 on day 13: • Saline group (N=8): saline (0.9% NaCl). • 2) Animals treated with […] during the intoxication period (days 1-12) and at T0 on day 13: • Hero group (N=14): saline (0.9% NaCl). • Amph 1 group (N=4): D-amphetamine (1 mg/kg). • Maz 0.125 group (N=5): mazindol (0.125 mg/kg). • Maz 0.25 group (N=6): mazindol (0.25 mg/kg). • Maz 0.5 group (N=6): mazindol (0.5 mg/kg). • Maz 1 group (N=6): mazindol (1 mg/kg). • Maz 2 group (N=5): mazindol (2 mg/kg).
A weighting factor was ascribed for each sign from which a score was calculated.
Examples: • Body weight before naloxone injection=241 g; after naloxone injection=236 g: • Weight loss score=2=100×(241−236)/241 • Number of escape attempts=8: • Score for escape attempts=2 • Profuse salivation present: • Score for profuse salivation
A global withdrawal score was then calculated: • Global score=the sum of the scores

[1] = Heroin intoxication procedure after Jiang et al., mortality; conditions: two subcutaneous injections/day of heroin at increasing doses (3 to 30 mg/kg)
Procedure: In the protocol planned before, it was planned to follow the method used by Jiang et al. Mice had to receive two subcutaneous injections/day of heroin at increasing doses (3 to 30 mg/kg) for 9 consecutive days and a single injection on the 10th day. […] It is likely that the discrepancy of toxicity between our experiments and the study of Jiang et al. partly resulted from difference in purity of heroin. Therefore, it was necessary to develop a method allowing to observe clear withdrawal symptoms and an acceptable mortality rate. This method is presented below. For information, 178 rats, including those used for the development of the method, have been used for this study of which 54 have been included in the results presented here.

C57BL/6J mice = experiment: Conditioned place preference induced by the drug itself; conditions: for Distance travelled in the drug-paired compartment / Distance travelled in the two compartments (Drug + Vehicle) / Distance travelled in the vehicle-paired compartment / Distance travelled, drug-paired minus vehicle-paired compartment / Time spent in the drug-paired compartment / Time spent in the vehicle-paired compartment / Time spent, drug-paired minus vehicle-paired compartment: vehicle before preference session, day 12, mean
From the text: Conditioned place preference (CPP) is a widely used procedure for studying the potential addictive effect of drugs. CPP is based upon the tendency of rodents to approach a stimulus that has previously been paired with an incentive state induced by a drug. A drug that induces a CPP may be suspected to present reinforcing effects that could lead to addiction. Numerous addictive drugs, such as opiate agonists or stimulants induce a CPP and a behavioral sensitization.
The effect of mazindol on place preference was examined in C57BL/6J mice using a method similar to the one used by Schlussman et al. (9).
The second experiment consisted in determining the optimal dose of heroin which induces the most significant CPP. For this purpose, the CPP induced by heroin at 1.25, 2.5 and 5 mg/kg was examined.
Following the habituation session (on day 1), animals (N=72) were pseudo-randomly assigned to two groups, a Control group (N=12) and a Heroin group (N=60), in a way that there was no significant difference between the two groups for the total distance travelled in the apparatus and for the percentage of time spent and the percentage distance travelled in the grey compartment and in the striped compartment.
Animals received the following treatments immediately before drug sessions: • Control group: vehicle • Heroin group: heroin (1.25 mg/kg)
Following the habituation session (on day 1), animals (N=72) were pseudo-randomly assigned to three groups, a Control group (N=12), a Heroin group (N=48) and a Mazindol group (N=12), in a way that there was no significant difference between the three groups for the total distance travelled in the apparatus and for the percentage of time spent and the percentage distance travelled in the grey compartment and in the striped compartment.
Animals received the following treatments before drug sessions: • Control group: vehicle, i.p. immediately before session. • Heroin group: heroin (1.25 mg/kg), i.p. immediately before session. • MAZ 2 group: mazindol (2 mg/kg), i.p. 60 min before session.
Animals received the following treatments before preference session: • Control group: vehicle of mazindol, i.p. 60 min before testing. • Hero group: vehicle of mazindol, i.p. 60 min before testing. • Hero-Mz 1 group: mazindol (1 mg/kg), i.p. 60 min before testing. • Hero-Mz 2 group: mazindol (2 mg/kg), i.p. 60 min before testing. • Hero-A 1 group: D-amphetamine (1 mg/kg), i.p. 30 min before testing. • MAZ 2 group: vehicle of mazindol, i.p. 60 min before testing.

[2] = Hero n = 14: heroin i.p. days 1-13 (2-15 mg/kg), saline 30 min before naloxone 5 mg/kg, mean
[3] = heroin-treated vs. saline rats, naloxone 5 mg/kg
[4] = Hero group N = 12 (Table 6): heroin 1.25 mg/kg i.p. before drug sessions
[5] = Hero group N = 24 (Table 5): heroin 1.25 mg/kg i.p. before drug sessions

SMILES: CC(=O)Oc1ccc2c3c1O[C@H]1[C@@H](OC(C)=O)C=C[C@H]4[C@@H](C2)N(C)CC[C@@]341 [Heroin]
- Abdominal constrictions score (Abd C) (Sprague-Dawley rats; [2]): 4.1
- Abnormal posture score (Ab P) (Sprague-Dawley rats; [2]): 0.2
- Chromodacryorrhea score (Chr) (Sprague-Dawley rats; [2]): 1.1
- Diarrhea score (Diarr) (Sprague-Dawley rats; [2]): 2.0
- Erection or ejaculation score (Er Ej) (Sprague-Dawley rats; [2]): 0.0
- Escape attempts score (Esc A) (Sprague-Dawley rats; [2]): 1.1
- Facial fasciculation or teeth chattering score (F F T C) (Sprague-Dawley rats; [2]): 2.0
- Global Score (Sprague-Dawley rats; [2]): 22.4
- Irritability score (Irrit) (Sprague-Dawley rats; [2]): 0.0
- Profuse salivation score (Pr Sal) (Sprague-Dawley rats; [2]): 5.5
- Ptosis score (Ptos) (Sprague-Dawley rats; [2]): 0.1
- Swallowing movements score (Sw M) (Sprague-Dawley rats; [2]): 0.9
- Weight loss score (W Los) (Sprague-Dawley rats; [2]): 1.9
- Wet dog shakes score (W D S) (Sprague-Dawley rats; [2]): 3.4
- global score and scores for weight loss, escape attempts, wet dog shake, diarrhea, facial fasciculation or teeth chattering and profuse salivation (Sprague-Dawley rats; [3]): induced an increase
- scores for abdominal constrictions and chromodacryorrhea (Sprague-Dawley rats; [3]): non-significantly increased
- mortality [1]: substantial mortality
- Distance travelled in the drug-paired compartment (C57BL/6J mice; [4]): 7919.1 cm
- Distance travelled in the two compartments (Drug + Vehicle) (C57BL/6J mice; [4]): 13647.5 cm
- Distance travelled in the vehicle-paired compartment (C57BL/6J mice; [4]): 5728.4 cm
- Distance travelled, drug-paired minus vehicle-paired compartment (C57BL/6J mice; [4]): 2190.6 cm
- Time spent in the drug-paired compartment (C57BL/6J mice; [4]): 1063.0 s
- Time spent in the vehicle-paired compartment (C57BL/6J mice; [4]): 737.0 s
- Time spent, drug-paired minus vehicle-paired compartment (C57BL/6J mice; [4]): 325.9 s
- Distance travelled in the drug-paired compartment (C57BL/6J mice; [5]): 7943.6 cm
- Distance travelled in the two compartments (Drug + Vehicle) (C57BL/6J mice; [5]): 13892.0 cm
- Distance travelled in the vehicle-paired compartment (C57BL/6J mice; [5]): 5948.4 cm
- Distance travelled, drug-paired minus vehicle-paired compartment (C57BL/6J mice; [5]): 1995.3 cm
- Time spent in the drug-paired compartment (C57BL/6J mice; [5]): 1023.7 s
- Time spent in the vehicle-paired compartment (C57BL/6J mice; [5]): 776.3 s
- Time spent, drug-paired minus vehicle-paired compartment (C57BL/6J mice; [5]): 247.4 s
- place preference induced by the drug (C57BL/6J mice; heroin 1.25 mg/kg before drug sessions): induced a place preference
- total distance travelled in two compartments (FIG. 3) (C57BL/6J mice; heroin 1.25 mg/kg before drug sessions, preference session): No significant modification
- CPP induced by heroin (second experiment) (C57BL/6J mice; heroin 1.25, 2.5 and 5 mg/kg): induced CPP at the three doses tested

From patent publication US11596622B2, “Mazindol treatment for heroin dependence and substance use disorder” (NLS Pharmaceutics AG, priority 2017, dated 2023)
